We go through eleven compounds from patent publication US20250288683A1, “TETRAHYDROISOQUINOLINE HETEROBIFUNCTIONAL BCL-XL DEGRADERS” (Treeline Biosciences, Inc., priority 2022, published 2025).

For the test, the target named is T1, Human BCL-XL protein (N-terminal HiBiT tagged BCL-XL in HT1080 cells) (Homo sapiens, UniProt Q07817).
T1 construct: expressed in transfected cells; host or cells: HT-1080 (ATCC CCL-121), stably transduced with lentivirus pLV-UBC-N-HiBiT-BCL-XL-PGK-puro and selected with puromycin
T1 sequence (Q07817 whole entry): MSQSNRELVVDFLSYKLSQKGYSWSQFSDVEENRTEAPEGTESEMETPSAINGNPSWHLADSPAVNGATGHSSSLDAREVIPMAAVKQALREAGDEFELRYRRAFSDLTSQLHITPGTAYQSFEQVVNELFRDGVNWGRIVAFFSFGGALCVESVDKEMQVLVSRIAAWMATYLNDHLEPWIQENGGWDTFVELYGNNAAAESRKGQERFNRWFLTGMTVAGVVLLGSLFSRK
As to the kind of experiment: HiBiT based degradation assay. It counts as cell-based. Particulars: HT1080 cells expressing N-terminal HiBiT tagged BCL-XL, 24 h, normalized with DMSO control. For orientation: With HiBiT, luminescence reflects the tagged protein that the partner subunit can reach.
Regarding `Cc1ncsc1-c1ccc([C@H](C)NC(=O)[C@@H]2C[C@@H](O)CN2C(=O)[C@@H](NC(=O)CN2CCC(COc3cccc(-c4ccc(N5CCc6cccc(C(=O)Nc7nc8ccccc8s7)c6C5)nc4C(=O)O)c3C)CC2)C(C)(C)C)cc1` [Compound 127a, 6-[8-(1,3-benzothiazol-2-ylcarbamoyl)-3,4-dihydro-1H-isoquinolin-2-yl]-3-[3-[[1-[2-[[(1S)-1-[(2S,4R)-4-hydroxy-2-[[(1S)-1-[4-(4-methylthiazol-5-yl)phenyl]ethyl]carbamoyl]pyrrolidine-1-carbonyl]-2,2-dimethyl-propyl]amino]-2-oxo-ethyl]-4-piperidyl]methoxy]-2-methyl-phenyl]pyridine-2-carboxylic acid], the “Ymin (24 h)” value is recorded as “A (Ymin < 50%)”.

With `Cc1ncsc1-c1ccc([C@H](C)NC(=O)[C@@H]2C[C@@H](O)CN2C(=O)[C@@H](n2cc(CCc3ccc(Oc4cccc(-c5ccc(N6CCc7cccc(C(=O)Nc8nc9ccccc9s8)c7C6)nc5C(=O)O)c4C)cc3)nn2)C(C)(C)C)cc1` [Compound 132a, 6-(8-(benzo[d]thiazol-2-ylcarbamoyl)-3,4-dihydroisoquinolin-2 (1H)-yl)-3-(3-(4-(2-(1-((S)-1-((2S,4R)-4-hydroxy-2-(((S)-1-(4-(4-methylthiazol-5-yl)phenyl)ethyl)carbamoyl)pyrrolidin-1-yl)-3,3-dimethyl-1-oxobutan-2-yl)-1H-1,2,3-triazol-4-yl)ethyl)phenoxy)-2-methylphenyl)picolinic acid], the “Ymin (24 h)” value is recorded as “B (50% ≤ Ymin < 70%)”.

Take `Cc1ncsc1-c1ccc([C@H](C)NC(=O)[C@@H]2C[C@@H](O)CN2C(=O)[C@@H](NC(=O)C(C)(C)CCc2ccc(Oc3cccc(-c4ccc(N5CCc6cccc(C(=O)Nc7nc8ccccc8s7)c6C5)nc4C(=O)O)c3C)cc2)C(C)(C)C)cc1` [Compound 133a, 6-[8-(1,3-benzothiazol-2-ylcarbamoyl)-3,4-dihydro-1H-isoquinolin-2-yl]-3-[3-[4-[4-[[(1S)-1-[(2S,4R)-4-hydroxy-2-[[(1S)-1-[4-(4-methylthiazol-5-yl)phenyl]ethyl]carbamoyl]pyrrolidine-1-carbonyl]-2,2-dimethyl-propyl]amino]-3,3-dimethyl-4-oxo-butyl]phenoxy]-2-methyl-phenyl]pyridine-2-carboxylic acid]: the “Ymin (24 h)” value is recorded as “B (50% ≤ Ymin < 70%)”.

In the case of `Cc1ncsc1-c1ccc(CNC(=O)[C@@H]2C[C@@H](O)CN2C(=O)[C@@H](NC(=O)C2(F)CC2)C(C)(C)SCCCCCCCCOc2cccc(-c3ccc(N4CCc5cccc(C(=O)Nc6nc7ccccc7s6)c5C4)nc3C(=O)O)c2C)cc1` [Compound 136a, 6-(8-(benzo[d]thiazol-2-ylcarbamoyl)-3,4-dihydroisoquinolin-2 (1H)-yl)-3-(3-((8-(((R)-3-(1-fluorocyclopropane-1-carboxamido)-4-((2S,4R)-4-hydroxy-2-((4-(4-methylthiazol-5-yl)benzyl)carbamoyl)pyrrolidin-1-yl)-2-methyl-4-oxobutan-2-yl)thio)octyl)oxy)-2-methylphenyl)picolinic acid], the “Ymin (24 h)” value was “A (Ymin < 50%)”.

Take `Cc1ncsc1-c1ccc(CNC(=O)[C@@H]2C[C@@H](O)CN2C(=O)[C@@H](NC(=O)C2(F)CC2)C(C)(C)SCCCCCCCCCCOc2cccc(-c3ccc(N4CCc5cccc(C(=O)Nc6nc7ccccc7s6)c5C4)nc3C(=O)O)c2C)cc1` [Compound 137a, 6-(8-(benzo[d]thiazol-2-ylcarbamoyl)-3,4-dihydroisoquinolin-2 (1H)-yl)-3-(3-((10-(((R)-3-(1-fluorocyclopropane-1-carboxamido)-4-((2S,4R)-4-hydroxy-2-((4-(4-methylthiazol-5-yl)benzyl)carbamoyl)pyrrolidin-1-yl)-2-methyl-4-oxobutan-2-yl)thio)decyl)oxy)-2-methylphenyl)picolinic acid]: the “Ymin (24 h)” value was “B (50% ≤ Ymin < 70%)”.

For `Cc1ncsc1-c1ccc([C@H](C)NC(=O)[C@@H]2C[C@@H](O)CN2C(=O)[C@@H](NC(=O)C(F)(F)CCc2ccc(Oc3cccc(-c4ccc(N5CCc6cccc(C(=O)Nc7nc8ccccc8s7)c6C5)nc4C(=O)O)c3C)cc2)C(C)(C)C)cc1` [Compound 139a], the “Ymin (24 h)” value is “A (Ymin < 50%)”.

Regarding `Cc1ncsc1-c1ccc(CNC(=O)[C@@H]2C[C@@H](O)CN2C(=O)[C@@H](NC(=O)C2(F)CC2)C(C)(C)SCCCCCCCOc2cccc(-c3ccc(N4CCc5cccc(C(=O)Nc6nc7ccccc7s6)c5C4)nc3C(=O)O)c2C)cc1` [Compound 140a], the “Ymin (24 h)” value is “B (50% ≤ Ymin < 70%)”.

Take `Cc1ncsc1-c1ccc(CNC(=O)[C@@H]2C[C@@H](O)CN2C(=O)[C@@H](NC(=O)C2(F)CC2)C(C)(C)SCCCCCCCCCOc2cccc(-c3ccc(N4CCc5cccc(C(=O)Nc6nc7ccccc7s6)c5C4)nc3C(=O)O)c2C)cc1` [Compound 141a]: the “Ymin (24 h)” value was “A (Ymin < 50%)”.

Regarding `Cc1ncsc1-c1ccc(CNC(=O)[C@@H]2C[C@@H](O)CN2C(=O)[C@@H](NC(=O)C2(F)CC2)C(C)(C)SCCCCCCCCCCCCOc2cccc(-c3ccc(N4CCc5cccc(C(=O)Nc6nc7ccccc7s6)c5C4)nc3C(=O)O)c2C)cc1` [Compound 142a], the “Ymin (24 h)” value is recorded as “B (50% ≤ Ymin < 70%)”.

As for `Cc1ncsc1-c1ccc([C@H](C)NC(=O)[C@@H]2C[C@@H](O)CN2C(=O)[C@@H](NC(=O)C(F)(F)[C@H]2CC[C@H](Oc3cccc(-c4ccc(N5CCc6cccc(C(=O)Nc7nc8ccccc8s7)c6C5)nc4C(=O)O)c3C)CC2)C(C)(C)C)cc1` [Compound 144a], the “Ymin (24 h)” value was “A (Ymin < 50%)”.

With `Cc1ncsc1-c1ccc([C@H](C)NC(=O)[C@@H]2C[C@@H](O)CN2C(=O)[C@@H](NC(=O)C(F)(F)[C@H]2CC[C@@H](Oc3cccc(-c4ccc(N5CCc6cccc(C(=O)Nc7nc8ccccc8s7)c6C5)nc4C(=O)O)c3C)CC2)C(C)(C)C)cc1` [Compound 144b], the “Ymin (24 h)” value was “C (Ymin ≥ 70%)”.
